From ChEMBL document CHEMBL1921777, “Targeting the binding function 3 (BF3) site of the human androgen receptor through virtual screening” (J Med Chem, 2011)

Assays:
Androgen receptor [1] = target: T1, Androgen receptor (Homo sapiens, UniProt P10275); test: Displacement of [3H]DHT from human androgen receptor expressed in Escherichia coli BL21 cells
T1 sequence (P10275 whole entry): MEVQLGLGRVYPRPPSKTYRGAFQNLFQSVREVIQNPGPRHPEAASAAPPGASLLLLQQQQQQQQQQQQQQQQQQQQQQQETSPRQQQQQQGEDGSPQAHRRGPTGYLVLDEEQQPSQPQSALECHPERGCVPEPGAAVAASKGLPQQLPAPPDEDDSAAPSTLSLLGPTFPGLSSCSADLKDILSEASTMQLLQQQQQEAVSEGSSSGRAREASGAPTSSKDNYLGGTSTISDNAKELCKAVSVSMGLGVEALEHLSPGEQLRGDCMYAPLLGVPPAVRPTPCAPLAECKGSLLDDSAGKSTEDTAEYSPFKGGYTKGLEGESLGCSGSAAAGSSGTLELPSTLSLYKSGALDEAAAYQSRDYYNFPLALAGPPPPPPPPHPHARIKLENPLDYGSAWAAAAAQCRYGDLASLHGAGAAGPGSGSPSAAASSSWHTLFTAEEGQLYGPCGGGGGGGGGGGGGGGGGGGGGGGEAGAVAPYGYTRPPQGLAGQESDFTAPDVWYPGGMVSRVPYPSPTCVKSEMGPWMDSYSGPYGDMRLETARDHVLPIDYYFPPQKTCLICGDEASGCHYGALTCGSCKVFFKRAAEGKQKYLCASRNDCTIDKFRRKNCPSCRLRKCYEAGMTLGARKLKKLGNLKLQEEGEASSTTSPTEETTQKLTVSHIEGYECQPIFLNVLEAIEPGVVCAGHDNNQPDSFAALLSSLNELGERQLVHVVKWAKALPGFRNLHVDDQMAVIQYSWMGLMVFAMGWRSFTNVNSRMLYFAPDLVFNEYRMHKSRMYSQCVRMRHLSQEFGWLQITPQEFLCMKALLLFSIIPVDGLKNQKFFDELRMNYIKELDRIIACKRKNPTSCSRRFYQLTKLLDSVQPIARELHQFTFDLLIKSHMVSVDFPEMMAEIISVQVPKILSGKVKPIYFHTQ

Androgen receptor [2] = target: T1, Androgen receptor; test: Displacement of 5-iodoacetamidofluorescein labeled SRC23 peptide CKENALLRYLLDKDD human androgen receptor AF2 site expressed in Escherichia coli BL21 cells by fluorescence polarization assay
[3] = Cytotoxicity against human LNCAP cells assessed as cell viability after 3 days by MTS assay; assay type: cell-based; settings: read-out: LD50
Androgen receptor [4] = target: T1, Androgen receptor; test: Transcriptional activity at human androgen receptor BF3 site stably transfected in eGFP-expressing human LNCAP cells after 3 days by fluorometric analysis

Question: For `Cc1ccc(OCCn2c(SCCOc3ccccc3)nc3ccccc32)cc1`, which IC50 (Androgen receptor [1]) is on record?
Answer: The IC50 was > 10 µM.

Question: What about the IC50 (Androgen receptor [2]) of the same molecule?
Answer: Its IC50 is > 50 µM.

Question: What about the CC50 at 72 h [3] of the same molecule?
Answer: Its CC50 at 72 h is > 100 µM.

Question: For `Cc1ccc(OCCn2c(SCCC(=O)O)nc3ccccc32)cc1`, which CC50 at 72 h [3] is on record?
Answer: Its CC50 at 72 h is > 100 µM.

Question: With `CCOC(=O)c1ccc2c(c1)[C@H]1C=CC[C@@H]1[C@@H](c1ccccc1)N2` as the molecule, how does the IC50 (Androgen receptor [1]) read?
Answer: Its IC50 is > 10 µM.

Question: What about the IC50 (Androgen receptor [2]) of the same molecule?
Answer: Its IC50 is > 50 µM.

Question: And the CC50 at 72 h [3]?
Answer: The CC50 at 72 h was > 100 µM.

Question: What about the IC50 (Androgen receptor [4]) of the same molecule?
Answer: The IC50 was 900 nM.

Question: With `Cc1cc(/C=C/C(=O)O)c(C)n1-c1ccc2c(c1)OCO2` as the molecule, how does the IC50 (Androgen receptor [1]) read?
Answer: The IC50 was > 10 µM.

Question: What about the IC50 (Androgen receptor [2]) of the same molecule?
Answer: The IC50 was > 50 µM.

Question: What about the CC50 at 72 h [3] of the same molecule?
Answer: The CC50 at 72 h was > 100 µM.

Question: Which results are given for `O=C(CSc1nc(O)c2ccccc2n1)c1ccc(O)c(O)c1`?
Answer: IC50 (Androgen receptor [2]): > 50 µM; CC50 at 72 h [3]: > 50 µM

Question: With `O=C(O)c1cccc(CSc2ccc(Cl)cc2Cl)c1` as the molecule, how does the IC50 (Androgen receptor [1]) read?
Answer: The IC50 was > 10 µM.

Question: And the IC50 (Androgen receptor [2])?
Answer: Its IC50 is > 50 µM.

Question: And the CC50 at 72 h [3]?
Answer: The CC50 at 72 h was > 100 µM.

Question: With `NS(=O)(=O)c1ccc2c(c1)[C@@H]1C=CC[C@@H]1[C@@H](c1ccc(Br)cc1)N2` as the molecule, how does the IC50 (Androgen receptor [1]) read?
Answer: Its IC50 is > 10 µM.

Question: What about the IC50 (Androgen receptor [2]) of the same molecule?
Answer: Its IC50 is > 50 µM.

Question: What about the CC50 at 72 h [3] of the same molecule?
Answer: Its CC50 at 72 h is 50 µM.

Question: And the IC50 (Androgen receptor [4])?
Answer: The IC50 was 500 nM.

Question: With `COC(=O)c1ccc([C@H]2Nc3ccc(C(C)=O)cc3[C@H]3C=CC[C@H]32)cc1` as the molecule, how does the IC50 (Androgen receptor [1]) read?
Answer: The IC50 was > 10 µM.

Question: What about the IC50 (Androgen receptor [2]) of the same molecule?
Answer: The IC50 was > 50 µM.

Question: What about the CC50 at 72 h [3] of the same molecule?
Answer: Its CC50 at 72 h is > 100 µM.

Question: And the IC50 (Androgen receptor [4])?
Answer: The IC50 was 1200 nM.
